Our source for the Activity, IC50 and inhibition values is ChEMBL document CHEMBL5532657, “Serendipitous discovery of Class I HDAC inhibitors from rational design of molecular glue degraders targeting HDAC” (Eur J Med Chem, 2024).

Calls of active or inactive are those of the source. No cut-off for these calls is given here. A value given as a limit tells only on which side of the number the result lay.

The target in one assay is Histone deacetylase 1 (Homo sapiens, UniProt Q13547). Description: Induction of HDAC1 degradation in human RS4-11 cells at 0.5 to 10 uM incubated for 12 hrs by Western blotting analysis. It counts as cell-based. To be noted: dose 0.5-10 µM. (A western blot detects proteins with antibodies after separation by electrophoresis.)
Sequence of Histone deacetylase 1 (Q13547 whole entry): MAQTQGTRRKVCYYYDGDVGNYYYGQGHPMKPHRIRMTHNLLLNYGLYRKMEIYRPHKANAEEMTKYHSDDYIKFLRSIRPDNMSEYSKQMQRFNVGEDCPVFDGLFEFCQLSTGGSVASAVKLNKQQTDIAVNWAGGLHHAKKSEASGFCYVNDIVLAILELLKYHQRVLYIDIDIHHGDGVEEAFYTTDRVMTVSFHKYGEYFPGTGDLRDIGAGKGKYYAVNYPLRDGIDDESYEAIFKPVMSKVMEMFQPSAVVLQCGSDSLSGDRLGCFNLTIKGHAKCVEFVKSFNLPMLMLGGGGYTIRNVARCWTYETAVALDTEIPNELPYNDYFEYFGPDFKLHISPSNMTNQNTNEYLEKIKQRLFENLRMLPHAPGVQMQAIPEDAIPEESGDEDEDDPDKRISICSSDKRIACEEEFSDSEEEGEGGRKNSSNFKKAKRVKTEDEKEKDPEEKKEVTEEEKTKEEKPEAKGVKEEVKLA
The target of assay [1] is T1, Protein deacetylase HDAC6 (Homo sapiens) (UniProt Q9UBN7).
T1 sequence (whole entry): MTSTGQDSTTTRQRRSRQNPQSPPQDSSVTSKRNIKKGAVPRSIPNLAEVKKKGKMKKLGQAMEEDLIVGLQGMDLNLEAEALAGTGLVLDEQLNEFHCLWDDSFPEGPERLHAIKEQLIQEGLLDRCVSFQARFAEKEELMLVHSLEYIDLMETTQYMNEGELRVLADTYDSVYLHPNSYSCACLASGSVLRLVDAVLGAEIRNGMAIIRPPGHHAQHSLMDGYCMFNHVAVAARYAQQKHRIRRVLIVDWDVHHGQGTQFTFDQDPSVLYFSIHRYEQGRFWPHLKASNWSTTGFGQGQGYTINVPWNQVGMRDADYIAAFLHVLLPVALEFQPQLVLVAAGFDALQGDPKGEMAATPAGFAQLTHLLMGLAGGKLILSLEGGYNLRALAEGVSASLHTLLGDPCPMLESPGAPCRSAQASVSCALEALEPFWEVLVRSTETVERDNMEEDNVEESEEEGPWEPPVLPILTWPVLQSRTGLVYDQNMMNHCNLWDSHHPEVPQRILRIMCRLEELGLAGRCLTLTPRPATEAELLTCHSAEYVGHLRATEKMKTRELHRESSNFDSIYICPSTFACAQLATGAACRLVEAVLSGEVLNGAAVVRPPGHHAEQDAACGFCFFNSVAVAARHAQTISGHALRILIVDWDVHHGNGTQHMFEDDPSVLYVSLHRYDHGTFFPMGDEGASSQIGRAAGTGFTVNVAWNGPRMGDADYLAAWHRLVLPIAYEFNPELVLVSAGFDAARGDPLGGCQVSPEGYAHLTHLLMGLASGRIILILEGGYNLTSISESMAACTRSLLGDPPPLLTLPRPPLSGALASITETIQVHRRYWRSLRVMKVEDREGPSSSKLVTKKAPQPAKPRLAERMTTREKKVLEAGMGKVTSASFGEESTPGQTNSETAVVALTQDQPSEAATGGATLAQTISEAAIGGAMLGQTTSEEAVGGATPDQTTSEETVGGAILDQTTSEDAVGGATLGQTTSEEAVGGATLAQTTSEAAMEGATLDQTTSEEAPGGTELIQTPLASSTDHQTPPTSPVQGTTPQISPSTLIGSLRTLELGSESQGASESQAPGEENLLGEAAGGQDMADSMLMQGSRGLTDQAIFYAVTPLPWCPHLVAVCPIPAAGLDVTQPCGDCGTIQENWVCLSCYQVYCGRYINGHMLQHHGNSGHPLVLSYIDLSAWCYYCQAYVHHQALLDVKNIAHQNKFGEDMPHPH
Description: Induction of HDAC6 degradation in human RS4-11 cells at 0.5 to 10 uM incubated for 12 hrs by Western blotting analysis. As to conditions: dose 0.5-10 µM. It counts as cell-based.

A further assay addresses Histone deacetylase 2 (Homo sapiens, UniProt Q92769). Briefly: Inhibition of HDAC2 in human HeLa cells nuclear extract using BocLys(acetyl)-AMC as substrate incubated for 1 hr by fluorescence plate reader analysis. It counts as subcellular, Nucleus.
The target of a further assay is Histone deacetylase 4 (Homo sapiens, UniProt P56524). Briefly: Inhibition of HDAC4 in human HeLa cells nuclear extract using BocLys(acetyl)-AMC as substrate incubated for 1 hr by fluorescence plate reader analysis. It counts as subcellular, Nucleus.
Sequence of Histone deacetylase 4 (P56524 whole entry): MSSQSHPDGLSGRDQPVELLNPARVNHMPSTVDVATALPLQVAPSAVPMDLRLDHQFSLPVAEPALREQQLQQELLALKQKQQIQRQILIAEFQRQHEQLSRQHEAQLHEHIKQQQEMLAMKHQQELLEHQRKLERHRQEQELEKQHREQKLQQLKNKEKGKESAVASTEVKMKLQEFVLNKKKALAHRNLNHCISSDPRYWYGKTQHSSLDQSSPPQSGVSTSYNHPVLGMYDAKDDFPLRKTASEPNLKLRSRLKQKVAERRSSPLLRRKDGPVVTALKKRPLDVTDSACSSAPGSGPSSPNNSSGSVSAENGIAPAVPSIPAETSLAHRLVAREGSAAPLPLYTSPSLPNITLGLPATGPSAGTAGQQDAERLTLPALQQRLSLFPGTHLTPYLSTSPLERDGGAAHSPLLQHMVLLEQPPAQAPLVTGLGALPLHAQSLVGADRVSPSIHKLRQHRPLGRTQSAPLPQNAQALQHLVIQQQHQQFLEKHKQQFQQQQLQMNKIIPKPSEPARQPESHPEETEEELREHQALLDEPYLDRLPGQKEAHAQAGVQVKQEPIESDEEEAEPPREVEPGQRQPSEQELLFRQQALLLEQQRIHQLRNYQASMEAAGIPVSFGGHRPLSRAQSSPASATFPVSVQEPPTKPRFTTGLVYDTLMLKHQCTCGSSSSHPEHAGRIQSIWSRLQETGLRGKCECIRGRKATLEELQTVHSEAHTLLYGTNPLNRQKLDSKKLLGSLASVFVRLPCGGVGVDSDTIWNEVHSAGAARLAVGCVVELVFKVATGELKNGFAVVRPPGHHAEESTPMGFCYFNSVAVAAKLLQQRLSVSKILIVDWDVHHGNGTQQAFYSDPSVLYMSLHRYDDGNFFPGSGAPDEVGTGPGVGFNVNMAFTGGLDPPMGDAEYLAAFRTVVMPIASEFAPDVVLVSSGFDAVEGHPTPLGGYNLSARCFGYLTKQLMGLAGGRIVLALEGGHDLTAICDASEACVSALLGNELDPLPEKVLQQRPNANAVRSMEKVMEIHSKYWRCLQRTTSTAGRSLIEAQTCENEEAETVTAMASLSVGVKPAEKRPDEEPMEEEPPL
The next assay addresses T2, Histone deacetylase 7 (Homo sapiens, UniProt Q8WUI4).
T2 sequence (Q8WUI4 whole entry): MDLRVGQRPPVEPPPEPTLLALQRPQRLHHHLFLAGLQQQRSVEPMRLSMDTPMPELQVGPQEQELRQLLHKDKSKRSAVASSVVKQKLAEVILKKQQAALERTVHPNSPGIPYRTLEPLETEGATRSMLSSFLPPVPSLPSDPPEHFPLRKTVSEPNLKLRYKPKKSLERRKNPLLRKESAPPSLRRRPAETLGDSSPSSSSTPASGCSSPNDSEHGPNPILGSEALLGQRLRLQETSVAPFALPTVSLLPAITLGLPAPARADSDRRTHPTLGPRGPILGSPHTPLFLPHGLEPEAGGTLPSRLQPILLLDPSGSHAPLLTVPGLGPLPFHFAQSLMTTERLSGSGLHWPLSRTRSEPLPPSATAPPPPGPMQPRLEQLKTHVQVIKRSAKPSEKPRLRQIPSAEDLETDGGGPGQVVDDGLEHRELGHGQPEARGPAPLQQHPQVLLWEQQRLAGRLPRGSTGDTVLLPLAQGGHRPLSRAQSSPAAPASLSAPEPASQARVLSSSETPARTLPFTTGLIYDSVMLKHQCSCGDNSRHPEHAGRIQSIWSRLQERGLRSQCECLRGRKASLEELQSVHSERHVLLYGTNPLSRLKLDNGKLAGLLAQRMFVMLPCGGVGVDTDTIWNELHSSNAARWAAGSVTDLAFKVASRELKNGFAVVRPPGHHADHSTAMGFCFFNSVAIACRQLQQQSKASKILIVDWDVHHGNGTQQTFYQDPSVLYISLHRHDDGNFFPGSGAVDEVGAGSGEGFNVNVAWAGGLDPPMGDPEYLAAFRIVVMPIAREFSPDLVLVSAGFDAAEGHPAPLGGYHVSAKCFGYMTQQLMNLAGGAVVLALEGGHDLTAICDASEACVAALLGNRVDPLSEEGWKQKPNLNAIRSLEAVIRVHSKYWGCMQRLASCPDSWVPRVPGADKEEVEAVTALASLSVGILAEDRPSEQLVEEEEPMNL
Description: Inhibition of HDAC7 in human HeLa cells nuclear extract using BocLys(acetyl)-AMC as substrate incubated for 1 hr by fluorescence plate reader analysis. It counts as subcellular, Nucleus.

Another assay addresses Histone deacetylase 9 (Homo sapiens, UniProt Q9UKV0). Briefly: Inhibition of HDAC9 in human HeLa cells nuclear extract using BocLys(acetyl)-AMC as substrate incubated for 1 hr by fluorescence plate reader analysis. It counts as subcellular, Nucleus.
The next assay addresses T3, Histone deacetylase 11 (Homo sapiens, UniProt Q96DB2).
T3 sequence (Q96DB2 whole entry): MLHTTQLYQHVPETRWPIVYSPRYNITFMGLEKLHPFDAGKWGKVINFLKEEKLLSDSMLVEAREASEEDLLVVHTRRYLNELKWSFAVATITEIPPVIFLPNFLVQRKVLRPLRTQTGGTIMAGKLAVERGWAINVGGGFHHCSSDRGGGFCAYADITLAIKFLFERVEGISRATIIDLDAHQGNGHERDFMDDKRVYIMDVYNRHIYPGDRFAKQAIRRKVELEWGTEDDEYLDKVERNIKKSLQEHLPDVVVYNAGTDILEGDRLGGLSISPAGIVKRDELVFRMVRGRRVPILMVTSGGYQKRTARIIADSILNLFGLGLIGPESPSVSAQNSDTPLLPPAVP
Description: Inhibition of HDAC11 in human HeLa cells nuclear extract using BocLys(acetyl)-AMC as substrate incubated for 1 hr by fluorescence plate reader analysis. It counts as subcellular, Nucleus.

A further assay concerns A549. Briefly: Antiproliferative activity against human A549 cells assessed as cell growth inhibition at 5 uM incubated for 48 hrs by CCK-8 assay. It counts as functional, cell-based. Background: Tetrazolium assays rely on reduction of a dye to a coloured formazan, in cell work by metabolically active cells.
For a further assay, the system named is HCT-116. Briefly: Antiproliferative activity against human HCT-116 cells assessed as cell growth inhibition at 5 uM incubated for 48 hrs by CCK-8 assay. It counts as functional, cell-based.
The test system of another assay is HeLa. Briefly: Antiproliferative activity against human HeLa cells assessed as cell growth inhibition at 5 uM incubated for 48 hrs by CCK-8 assay. It counts as functional, cell-based.
The subject of another assay is U-266. Briefly: Antiproliferative activity against human U-266 cells assessed as cell growth inhibition incubated for 48 hrs by CCK-8 assay. As to conditions: U-266, 48 h. It counts as functional, cell-based.
The next assay deals with RPMI-8226. Briefly: Antiproliferative activity against human RPMI-8226 cells assessed as cell growth inhibition incubated for 48 hrs by CCK-8 assay. To be noted: RPMI-8226, 48 h. It counts as functional, cell-based.
The test system of the next assay is K562. Briefly: Antiproliferative activity against human K562 cells assessed as cell growth inhibition incubated for 48 hrs by CCK-8 assay. It counts as functional, cell-based. To be noted: K562, 48 h.
Another assay relates to RS4-11. Description: Antiproliferative activity against human RS4-11 cells assessed as cell growth inhibition incubated for 48 hrs by CCK-8 assay. It counts as functional, cell-based. As to conditions: RS4-11, 48 h.
Assay [2] deals with Histone deacetylase (Homo sapiens) (UniProt Q13547+O15379+Q9UBN7+Q92769+Q9UQL6+Q8WUI4+Q9BY41+Q96DB2+P56524+Q9UKV0+Q969S8). Description: Inhibition of HDAC in human RS4-11 cells assessed as upregulation of histone H3 acetylation by Western blot assay. It counts as cell-based.
Assay [3] has as its target T1, Protein deacetylase HDAC6 (Homo sapiens). Description: Inhibition of HDAC6 in human RS4-11 cells assessed as effect on alpha-tubulin acetylation by Western blot assay. It counts as cell-based.

Sequence of Histone deacetylase 2 (Q92769 whole entry): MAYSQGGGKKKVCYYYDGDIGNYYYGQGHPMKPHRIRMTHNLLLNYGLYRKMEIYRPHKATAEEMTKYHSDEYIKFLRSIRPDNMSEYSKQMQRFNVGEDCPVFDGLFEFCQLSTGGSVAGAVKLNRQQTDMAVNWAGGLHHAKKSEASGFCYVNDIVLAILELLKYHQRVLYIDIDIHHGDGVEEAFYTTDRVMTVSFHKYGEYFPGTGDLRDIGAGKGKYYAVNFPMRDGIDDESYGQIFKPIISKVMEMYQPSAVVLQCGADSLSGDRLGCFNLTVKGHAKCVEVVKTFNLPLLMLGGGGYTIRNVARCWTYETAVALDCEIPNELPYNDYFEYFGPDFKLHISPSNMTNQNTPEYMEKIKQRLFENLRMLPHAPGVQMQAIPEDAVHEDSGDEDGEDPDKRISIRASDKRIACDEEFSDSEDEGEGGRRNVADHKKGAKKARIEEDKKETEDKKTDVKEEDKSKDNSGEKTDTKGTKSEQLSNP
Sequence of Histone deacetylase 9 (Q9UKV0 whole entry): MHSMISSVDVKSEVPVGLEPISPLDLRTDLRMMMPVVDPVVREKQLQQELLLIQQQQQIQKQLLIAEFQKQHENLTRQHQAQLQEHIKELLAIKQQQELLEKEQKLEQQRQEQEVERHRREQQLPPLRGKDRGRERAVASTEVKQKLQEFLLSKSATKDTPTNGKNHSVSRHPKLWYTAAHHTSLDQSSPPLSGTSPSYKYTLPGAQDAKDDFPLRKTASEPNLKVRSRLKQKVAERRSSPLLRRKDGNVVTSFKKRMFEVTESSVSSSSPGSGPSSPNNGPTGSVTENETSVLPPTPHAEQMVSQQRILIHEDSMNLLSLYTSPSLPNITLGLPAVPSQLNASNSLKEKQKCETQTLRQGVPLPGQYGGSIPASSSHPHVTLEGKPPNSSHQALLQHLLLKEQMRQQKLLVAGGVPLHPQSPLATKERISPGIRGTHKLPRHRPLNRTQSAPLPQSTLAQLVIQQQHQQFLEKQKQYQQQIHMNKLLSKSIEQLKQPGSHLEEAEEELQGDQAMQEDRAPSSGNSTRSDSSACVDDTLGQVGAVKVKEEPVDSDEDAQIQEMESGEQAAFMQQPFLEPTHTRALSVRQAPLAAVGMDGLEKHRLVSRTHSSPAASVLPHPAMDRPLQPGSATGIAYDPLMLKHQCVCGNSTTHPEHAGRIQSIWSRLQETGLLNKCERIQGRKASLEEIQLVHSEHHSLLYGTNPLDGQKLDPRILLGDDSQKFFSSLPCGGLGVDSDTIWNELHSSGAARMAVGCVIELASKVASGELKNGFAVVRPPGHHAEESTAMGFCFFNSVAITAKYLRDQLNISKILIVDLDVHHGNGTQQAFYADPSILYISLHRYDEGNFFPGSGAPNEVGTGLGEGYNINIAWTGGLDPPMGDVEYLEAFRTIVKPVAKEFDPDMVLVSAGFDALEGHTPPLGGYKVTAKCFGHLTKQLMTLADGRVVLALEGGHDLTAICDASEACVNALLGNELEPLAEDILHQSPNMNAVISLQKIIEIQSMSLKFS

`Nc1ccc(F)cc1NC(=O)c1ccc(CNC(=O)/C=C/c2cccnc2)cc1`: the outcome (on Histone deacetylase 1; in assay [1]; in the assay with A549; in the assay with HCT-116; in the assay with HeLa) was inactive. Also, the IC50 (usually the concentration needed to halve the response being measured) was 0.479 µM against Histone deacetylase 2; greater than 2 µM on Histone deacetylase 4; greater than 2 µM on Histone deacetylase 7; greater than 2 µM at Histone deacetylase 9; greater than 2 µM against Histone deacetylase 11; 4.81 µM in the assay on U-266. The results for the IC50 in the assay on RPMI-8226, in the assay with K562 and in the assay on RS4-11 were 4.19 µM, 21.3 µM and 0.81 µM, respectively.
`O=C(CCCCCCNc1cccc2c1C(=O)N(C1CCC(=O)NC1=O)C2=O)NO` (stereo unspecified): the result (at Histone deacetylase 1; in assay [1]; in assay [3]; with A549; in the assay with HCT-116; with HeLa) was inactive. In assay [2], the inhibition entry is “Active”.
In the case of `Nc1ccccc1NC(=O)CCCCCNc1cccc2c1C(=O)N(C1CCC(=O)NC1=O)C2=O` (stereo unspecified), the outcome (at Histone deacetylase 1; in [1]; in the assay with A549; with HCT-116; in the assay with HeLa) was inactive.
